Among the data in ChEMBL document CHEMBL1147790, “Synthetic analogues of the manzamenones and plakoridines which inhibit DNA polymerase” (Bioorg Med Chem Lett, 2006) are IC50 values, retold here.

Each structure is given as a SMILES string.

The target of assay [1] is T1, DNA polymerase alpha catalytic subunit (Homo sapiens, UniProt P09884).
T1 sequence (P09884 whole entry): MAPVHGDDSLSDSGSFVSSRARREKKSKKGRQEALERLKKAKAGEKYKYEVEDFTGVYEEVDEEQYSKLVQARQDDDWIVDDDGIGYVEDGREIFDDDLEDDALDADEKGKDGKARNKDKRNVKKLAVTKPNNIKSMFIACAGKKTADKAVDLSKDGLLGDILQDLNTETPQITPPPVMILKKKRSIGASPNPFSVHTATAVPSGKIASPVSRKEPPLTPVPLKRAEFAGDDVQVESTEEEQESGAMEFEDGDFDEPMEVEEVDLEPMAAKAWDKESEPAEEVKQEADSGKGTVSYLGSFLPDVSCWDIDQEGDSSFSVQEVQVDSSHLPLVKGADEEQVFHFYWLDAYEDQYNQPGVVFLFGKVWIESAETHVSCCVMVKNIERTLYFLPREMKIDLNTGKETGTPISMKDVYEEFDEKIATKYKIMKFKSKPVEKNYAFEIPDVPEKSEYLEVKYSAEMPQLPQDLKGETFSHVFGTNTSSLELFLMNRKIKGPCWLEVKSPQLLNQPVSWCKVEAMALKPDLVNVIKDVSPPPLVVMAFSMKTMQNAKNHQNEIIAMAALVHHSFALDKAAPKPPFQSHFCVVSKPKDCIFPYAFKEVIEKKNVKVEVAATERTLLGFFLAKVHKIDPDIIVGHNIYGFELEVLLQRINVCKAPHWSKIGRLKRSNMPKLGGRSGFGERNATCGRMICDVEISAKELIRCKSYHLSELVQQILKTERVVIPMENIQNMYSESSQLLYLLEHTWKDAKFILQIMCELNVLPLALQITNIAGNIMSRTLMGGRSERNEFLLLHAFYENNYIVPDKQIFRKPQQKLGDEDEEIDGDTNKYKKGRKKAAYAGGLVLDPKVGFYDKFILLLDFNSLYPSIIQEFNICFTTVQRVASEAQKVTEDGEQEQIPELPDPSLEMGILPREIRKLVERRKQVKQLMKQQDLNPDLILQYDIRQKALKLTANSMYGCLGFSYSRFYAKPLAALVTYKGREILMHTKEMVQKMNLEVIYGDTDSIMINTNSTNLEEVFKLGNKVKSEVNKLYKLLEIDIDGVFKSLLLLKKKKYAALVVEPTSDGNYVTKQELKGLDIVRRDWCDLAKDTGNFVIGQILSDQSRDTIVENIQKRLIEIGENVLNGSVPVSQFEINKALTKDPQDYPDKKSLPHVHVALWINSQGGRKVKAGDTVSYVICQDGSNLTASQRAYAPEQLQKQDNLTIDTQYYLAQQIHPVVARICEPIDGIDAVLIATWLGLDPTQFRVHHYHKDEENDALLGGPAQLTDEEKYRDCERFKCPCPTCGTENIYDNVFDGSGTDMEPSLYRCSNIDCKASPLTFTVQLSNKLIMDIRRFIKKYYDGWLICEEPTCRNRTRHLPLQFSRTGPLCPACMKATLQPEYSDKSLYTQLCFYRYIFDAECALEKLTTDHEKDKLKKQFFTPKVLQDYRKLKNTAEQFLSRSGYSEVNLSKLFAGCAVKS
Briefly: Inhibition of DNA polymerase alpha.

The target of assay [2] is DNA polymerase beta (Homo sapiens, UniProt P06746). Briefly: Inhibition of DNA polymerase beta.
Assay [3] addresses DNA nucleotidylexotransferase (Homo sapiens, UniProt P04053). Briefly: Inhibition of human TdT.

Chain of DNA nucleotidylexotransferase (P04053 whole entry): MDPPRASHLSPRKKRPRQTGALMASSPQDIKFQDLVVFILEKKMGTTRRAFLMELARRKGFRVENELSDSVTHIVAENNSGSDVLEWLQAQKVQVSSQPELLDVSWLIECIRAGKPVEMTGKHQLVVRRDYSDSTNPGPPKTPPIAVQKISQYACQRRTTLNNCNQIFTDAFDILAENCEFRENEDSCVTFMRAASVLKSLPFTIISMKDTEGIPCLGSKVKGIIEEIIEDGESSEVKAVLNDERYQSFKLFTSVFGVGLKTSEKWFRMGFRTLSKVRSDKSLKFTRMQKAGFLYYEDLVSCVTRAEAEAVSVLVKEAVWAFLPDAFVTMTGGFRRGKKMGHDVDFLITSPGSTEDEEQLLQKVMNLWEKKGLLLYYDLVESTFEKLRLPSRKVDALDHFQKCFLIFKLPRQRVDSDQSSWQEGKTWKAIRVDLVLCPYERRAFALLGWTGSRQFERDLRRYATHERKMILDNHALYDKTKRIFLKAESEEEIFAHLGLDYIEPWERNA

As a reminder, the IC50 is the midpoint of a concentration-inhibition curve. A low value points to greater potency in that assay. `CCCCCCCCCCCCC(=O)/C=C1\[C@H](O)[C@@H](C(=O)OC)[C@H](CC)N1Cc1ccccc1`: the figures for the IC50 in assay [1], in assay [2] and in assay [3] were 19.9 µM, 30 µM and above 50 µM, respectively.
For the compound `CCCCCCCCCCCCCCCCC1=C[C@H](C(=O)OCC)[C@H]2C(=O)C(C(=O)OC)=C(CCCCCCCCCCCCCCCC)[C@H]2[C@H]1C(=O)OC`, the IC50 in assay [1] stood at 2.3 µM; in assay [2], 1.9 µM; in assay [3], 39.7 µM.
Turning to `CCCCCCCCCCCCCCCCC(=O)/C=C/C(=O)CC(=O)OC` [E-ENEDIONE], the values for the IC50 in assay [1] and in assay [2] were 3.7 µM and 8.8 µM, respectively.
Turning to `CCCCCCCCCCCCCCCCC1=C[C@H](C(=O)O)[C@H]2C(=O)C(C(=O)OC)=C(CCCCCCCCCCCCCCCC)[C@H]2[C@H]1C(=O)OC`, the IC50 in assay [1] stood at 1.9 µM; in assay [2] it was 3.2 µM; in assay [3] it was 2.5 µM.
Consider `CCCCCCCCCCCCCCCCC1=C[C@H](C(=O)OCC)[C@H]2C(=O)C(C(=O)OC)=C(CCCCCCCCCCCCCCCC)[C@H]2[C@@H]1C(=O)OC`, for which the half-maximal inhibitory concentration (IC50) in assay [1] was 3.5 µM; in assay [2] it was 2.4 µM; in assay [3], 48.4 µM.
Take `CCCCCCCCCCCCC(=O)/C=C1\[C@H](O)[C@@H](C(=O)OC)[C@H](c2ccccc2)N1CCc1c[nH]c2ccccc12`: the IC50 is 21 µM in assay [1], 10 µM in assay [2] and above 50 µM in assay [3].
The like results for `CCCCCCCCCCCCC1=C[C@H](C(=O)O)[C@H]2C(=O)C(C(=O)OC)=C(CCCCCCCCCCCC)[C@H]2[C@H]1C(=O)OC` were, in that order, 1.9 µM, 2.3 µM and 8.6 µM.
Regarding `CCCCCCCCCCCCC(=O)/C=C1\[C@H](O)[C@@H](C(=O)OC)[C@H](CC)N1CCc1ccccc1`, the IC50 in assay [1] was 25 µM; in assay [2], 22 µM; in assay [3] it was above 50 µM.
As for `CCCCCCCCCCCCCCCCC1=C[C@H](C(=O)O)[C@H]2C(=O)C(C(=O)OC(C)C)=C(CCCCCCCCCCCCCCCC)[C@H]2[C@H]1C(=O)OC(C)C`, the half-inhibitory concentration (IC50) in assay [1] turned out to be 3.3 µM; in assay [2], 4.4 µM; in assay [3], 20 µM.
As for `CCCCCCCCCCCCCCCCC1=C[C@H](C(=O)OC)[C@H]2C(=O)[C@]3(C(=O)OC)C[C@]3(CCCCCCCCCCCCCCCC)[C@H]2[C@H]1C(=O)OC`, the IC50 in assay [1], in assay [2] and in assay [3] was above 12.5 µM in each case.
Consider `CCCCCCCCCCCCCCCCC1=C[C@H](C(=O)NCCc2ccccc2)[C@H]2C(=O)C(C(=O)OC)=C(CCCCCCCCCCCCCCCC)[C@H]2[C@H]1C(=O)OC`, for which the concentration for half-maximal inhibition (IC50) was 6.9 µM in assay [1], 8.7 µM in assay [2] and above 12.5 µM in assay [3].
Take `CCCCCCCCCCCCCCCC[C@]1(O)C=C[C@H](O)[C@H]1C(=O)OC` [PLAKEVULIN A]: the half-inhibitory concentration (IC50) was determined as 66 µM in assay [1] and 179 µM in assay [2].
For `CCCCCCCCCCCCCCCC[C@]1(O)C=CC(=O)[C@H]1C(=O)OC` [UNTENONE A], the concentration for half-maximal inhibition (IC50) came to 4.3 µM in assay [1] and 57 µM in assay [2].
As to `CCCCCCCCCCCCC(=O)/C=C1\[C@@H](O)[C@@H](C(=O)OC)[C@H](CC)N1Cc1ccccc1`, the concentration for half-maximal inhibition (IC50) in assay [1] was 19.7 µM; in assay [2], 27.1 µM; in assay [3] it was above 50 µM.
Regarding `CCC1=C[C@H](C(=O)O)[C@H]2C(=O)C(C(=O)OC)=C(CC)[C@H]2[C@H]1C(=O)OC`, the half-maximal inhibitory concentration (IC50) in assay [1], in assay [2] and in assay [3] was above 50 µM throughout.
